Read-outs that look alike come from different tables or passages of the source.
Experiments:
[1] = Pharmacokinetic studies in rat (i.v.); format: in vivo; details: male, Sprague-Dawley, rat, plasma, dose 1.37 mg/kg (I-71, I-128), 1.33 mg/kg ((S) I-67); for concentration at 0.25 h / concentration at 1 h / concentration at 4 h: intravenous, rat i.v.; for AUC(0-t) / half-life: iv, rat plasma, i.v.; for half-life: estimated from 2 points only
Method: Animals: Male Sprague-Dawley rats (˜225-350 g) from Charles River Labs were acclimatized for a minimum of 5 days prior to start of study procedures. Body weights were recorded on the day of dosing.
Any abnormalities were documented including presence/absence of wet dog shakes/back muscle contractions (WDS/BMC).
Dosing: Formulations were administered intravenously (i.v.) via the tail vein using a 25 G needle connected to a 1 cc syringe.
The Compounds of Formula (I) were freshly prepared at the appropriate concentrations in 5% Tween-80 in saline.
Blood collection time (h): 0.25, 1 and 4.
Volume/time-point: ˜0.25 mL […] (saphenous vein).
Instrumentation: AB Sciex QTRAP 4000 or 6500 MS/MS system equipped with an LC system with a binary pump, a solvent degasser, a thermostatted column compartment and a multiplate autosampler.
Analysis software: Phoenix® WinNonlin® 8.3 (Pharsight, Certara, Mountainview, CA).
Analysis methods: non-compartmental analysis, linear up/log down trapezoidal rule.
PK parameters: t1/2 and AUC0-tlast were be estimated.
Volume/time-point: ˜0.25 mL (saphenous vein).
PK parameters: t1/2 and AUC0-tlast were estimated.

[2] = Rat liver microsomes stability; format: in vitro ADME; details: rat liver microsomes
Method: (§1) The objective of this study was to estimate in vitro metabolic stability of exemplary compounds of Formula (I) or a pharmaceutically acceptable salt, solvate, and/or prodrug thereof in pooled human, male rat, and male mouse liver microsomes. The concentrations of compounds in reaction systems were evaluated by LC-MS/MS for estimating the stability in pooled human, male rat, and male mouse liver microsomes. The in vitro intrinsic clearances of test compounds were determined as well.
(§2) A master solution in the “Incubation Plate” containing phosphate buffer, ultra-pure H2O, MgCl2 solution and liver microsomes was made according to Table 33. The mixture was pre-warmed at 37° C. water bath for 5 minutes.
(§3) 40 μL of 10 mM nicotinamide adenine dinucleotide phosphate (NADPH) solution was added to each well. The final concentration of NADPH was 1 mM. The negative control samples were prepared by replacing NADPH with 40 μL of ultra-pure H2O. Samples were prepared in duplicate. Negative controls were prepared in singlet.
(§4) The reaction was started with the addition of 4 μL of 200 μM exemplary test compounds of the disclosure or control compounds to each master solution to get the final concentration of 2 μM. This study was performed in duplicate.
(§5) Aliquots of 50 μL were taken from the reaction solution at 0, 15, 30, 45, and 60 minutes. The reaction solutions were stopped by the addition of 4 volumes of cold methanol with IS (100 nM alprazolam, 200 nM imipramine, 200 nM labet alol and 2 μM ketoprofen). Samples were centrifuged at 3,220 g for 40 minutes. Aliquot of 90 μL of the supernatant was mixed with 90 μL of ultra-pure H2O and then was used for LC-MS/MS analysis.
(§6) LC/MS analysis was performed for all samples from this study using a Shimadzu liquid chromatograph separation system equipped with degasser DGU-20A5R; solvent delivery unit LC-30AD; system controller SIL-30AC; column oven CTO-30A; CTC Analytics HTC PAL System. Mass spectrometric analysis was performed using a Triple Quad™ 5500 instrument.
(§7) All calculations were carried out using Microsoft Excel. Peak area ratios of test compound to internal standard (listed in the below table) were determined from extracted ion chromatograms.
(§8) All calculations were carried out using Microsoft Excel. Peak areas were determined from extracted ion chromatograms. The slope value, k, was determined by linear regression of the natural logarithm of the remaining percentage of the parent drug vs. incubation time curve.
(§9) The in vitro half-life (in vitro t1/2) was determined from the slope value:
(§10) Conversion of the in vitro t1/2(min) into the in vitro intrinsic clearance (in vitro CLint, in μL/min/mg proteins) was done using the following equation (mean of duplicate determinations): […]
(§11) A master solution in the “Incubation Plate” containing phosphate buffer, ultra-pure H2O, MgCl2 solution and liver microsomes was made according to Table 63. The mixture was pre-warmed at 37° C. water bath for 5 minutes.
(§12) 40 μL of 10 mM NADPH solution was added to each well. The final concentration of NADPH was 1 mM. The negative control samples were prepared by replacing NADPH with 40 μL of ultra-pure H2O. Samples were prepared in duplicate. Negative controls were prepared in singlet.
(§13) Conversion of the in vitro t1/2(min) into the in vitro intrinsic clearance (in vitro C Lt, in μL/min/mg proteins) was done using the following equation (mean of duplicate determinations): […]

[3] = Mouse liver microsomes stability; format: in vitro ADME; details: mouse liver microsomes
Method: as §1, §2, §3, §4, §5, §6, §7, §8, §9, §10, §11, §12, §13

[4] = first individual rat (R01/R04), read-out: Plasma concentration
[5] = mean of 3 rats, read-out: Plasma concentration, Mean ± SD
[6] = second individual rat (R02/R05), read-out: Plasma concentration
[7] = third individual rat (R03/R06), read-out: Plasma concentration
[8] = male, pooled liver microsomes, 2 μM compound, 0.5 mg/mL
[9] = male, pooled liver microsomes, read-out: Scaled-up CLint

COc1ccc2[nH]cc(CCN3CC[C@H](OC(F)F)C3)c2c1 [(S) I-67, (S)-3-(2-(3-(Difluoromethoxy)pyrrolidin-1-yl)ethyl)-5-methoxy-1H-indole] showed a concentration at 0.25 h [1, 4] of 0.413 µg/mL, a concentration at 0.25 h [1, 5] of 0.436 ± 0.0324 µg/mL and a concentration at 0.25 h [1, 6] of 0.473 µg/mL. It also gave a concentration at 0.25 h [1, 7] of 0.422 µg/mL, a concentration at 1 h [1, 4] of 0.172 µg/mL and a concentration at 1 h [1, 5] of 0.162 ± 0.00907 µg/mL. For the same compound, the concentration at 1 h [1, 6] was 0.155 µg/mL, the concentration at 1 h [1, 7] was 0.158 µg/mL and the concentration at 4 h [1, 4] was 0.00535 µg/mL. For the same compound, the concentration at 4 h [1, 5] was 0.00696 ± 0.00154 µg/mL, the concentration at 4 h [1, 6] was 0.00841 µg/mL and the concentration at 4 h [1, 7] was 0.00712 µg/mL. The AUC(0-t) ([1]; first individual rat (R01/R04), read-out: AUC0-tlast) was 0.47 µg·h/mL, the half-life ([1]; first individual rat (R01/R04), read-out: Apparent t1/2 (converted)) was 35.9 min and the AUC(0-t) ([1]; mean of 3 rats, read-out: AUC0-tlast, Mean ± SD) was 0.484 ± 0.0211 µg·h/mL. The half-life ([1]; mean of 3 rats, read-out: Apparent t1/2, Mean ± SD (converted)) was 38.2 ± 2.02 min, the AUC(0-t) ([1]; second individual rat (R02/R05), read-out: AUC0-tlast) was 0.508 µg·h/mL and the half-life ([1]; second individual rat (R02/R05), read-out: Apparent t1/2 (converted)) was 39.8 min. For the same compound, the AUC(0-t) ([1]; third individual rat (R03/R06), read-out: AUC0-tlast) was 0.472 µg·h/mL, the half-life ([1]; third individual rat (R03/R06), read-out: Apparent t1/2 (converted)) was 38.8 min and the half-life at 2 μM [2, 8] was under 4.51 min. For the same compound, the CLint scaled at 2 μM [2, 9] was over 33 L/h/kg, the microsomal CLint at 2 μM ([2]; male, rat, pooled liver microsomes, 2 μM compound, 0.5 mg/mL, read-out: CLint (μL/min/mg protein)) was over 307 µL/min/mg and the “Predicted hepatic CL” value [2] was over 3.01 L/h/kg. For the same compound, the “Remaining Percentage (%)” value ([2]; With Cofactors, 0 min) was 100.00%, the “Remaining Percentage (%)” value ([2]; With Cofactors, 30 min) was 0.00% and the “Remaining Percentage (%)” value ([2]; With Cofactors, 60 min) was 0.00%. For the same compound, the “Remaining Percentage (%)” value ([2]; Without Cofactors, 0 min) was 100.00%, the “Remaining Percentage (%)” value ([2]; Without Cofactors, 30 min) was 99.06% and the “Remaining Percentage (%)” value ([2]; Without Cofactors, 60 min) was 96.86%. It also gave a microsomal CLint at 2 μM ([3]; male, mouse, pooled liver microsomes, 2 μM compound, 0.5 mg/mL, read-out: CLint (μL/min/mg protein)) of 69.3 µL/min/mg, a half-life at 2 μM [3, 8] of 20 min and a CLint scaled at 2 μM [3, 9] of 18.2 L/h/kg. The “Predicted hepatic CL” value [3] was 4.165 L/h/kg, the “Remaining Percentage (%)” value ([3]; With Cofactors, 0 min) was 100.00% and the “Remaining Percentage (%)” value ([3]; With Cofactors, 30 min) was 34.21%. The “Remaining Percentage (%)” value ([3]; With Cofactors, 60 min) was 12.49%, the “Remaining Percentage (%)” value ([3]; Without Cofactors, 0 min) was 100.00% and the “Remaining Percentage (%)” value ([3]; Without Cofactors, 30 min) was 103.46%. For the same compound, the “Remaining Percentage (%)” value ([3]; Without Cofactors, 60 min) was 100.35%.

From US20250257034A1, “INDOLE DERIVATIVES AS SEROTONERGIC AGENTS USEFUL FOR THE TREATMENT OF DISORDERS RELATED THERETO” (priority 2023, published 2025)
